Measurements as given in paper PMC7948503, “Optimization of a peptide ligand for the adhesion GPCR ADGRG2 provides a potent tool to explore receptor biology” (The Journal of Biological Chemistry, 2020).
Non-standard residues stand in square brackets, D forms with d. Residues, ends and D or L forms follow the SMILES beside them. *: point of attachment. FITC = O=C1OC2(c3ccc(O)cc3Oc3cc(O)ccc32)c2ccc(NC(=S)*)cc21; Phe(4-Me) = Cc1ccc(C[C@H](N)C(=O)O)cc1

Experiments:
Rluc-ADGRG2-ΔGPS-β V834A = target: T1, Rluc-ADGRG2-ΔGPS-β V834A (Mus musculus, UniProt Q8CJ12, V848A); assay: BRET binding of FITC-VPM-p15; settings: mutant V834A
T1 construct: expressed in transfected cells; host or cells: HEK293
Method: (§1) The binding capacities of ADGRG2 WT or its mutants for VPM-p15 were determined by BRET assay, which has been used in previous studies ([27], [28], [29]). We fused the N terminus of ADGRG2 with a Rluc fragment and coupled FITC to the C terminus of VPM-p15 to facilitate BRET measurement. We stimulated the HEK293 cells transfected with Rluc-ADGRG2-ΔGPS-β wildtype (WT) or mutants by increasing the concentration of FITC-conjugated VPM-p15, and their binding abilities were determined by fitting the data with the saturation curves.
(§2) In the detection of binding capacities of ADGRG2 WT or its mutants for VPM-p15, HEK293 cells were transfected with Rluc-ADGRG2-ΔGPS-β or mutants. Transfected cells were stimulated by increasing the concentration of FITC-conjugated VPM-p15. Binding capacities were determined by BRET, EC50 values of ADGRG2 WT and its mutants for binding VPM-p15 were calculated by GraphPad, and data were normalized by EC50 of WT.

Rluc-ADGRG2-ΔGPS-β V731A = target: T2, Rluc-ADGRG2-ΔGPS-β V731A (Mus musculus, UniProt Q8CJ12, V745A); assay: BRET binding of FITC-VPM-p15; settings: mutant V731A
T2 construct: the entire ECD (including the entire GPS motif) was removed (ADGRG2-ΔGPS-β); expressed in transfected cells; host or cells: HEK293
Method: as §1, §2

Rluc-ADGRG2-ΔGPS-β F747A = target: T3, Rluc-ADGRG2-ΔGPS-β F747A (Mus musculus, UniProt Q8CJ12, F761A); assay: BRET binding of FITC-VPM-p15; settings: mutant F747A
T3 construct: the entire ECD (including the entire GPS motif) was removed (ADGRG2-ΔGPS-β); expressed in transfected cells; host or cells: HEK293
Method: as §1, §2

Rluc-ADGRG2-ΔGPS-β C614A = target: T4, Rluc-ADGRG2-ΔGPS-β C614A (Mus musculus, UniProt Q8CJ12, C628A); assay: BRET binding of FITC-VPM-p15; settings: mutant C614A
T4 construct: the entire ECD (including the entire GPS motif) was removed (ADGRG2-ΔGPS-β); expressed in transfected cells; host or cells: HEK293
Method: as §1, §2

Rluc-ADGRG2-ΔGPS-β S760A = target: T5, Rluc-ADGRG2-ΔGPS-β S760A (Mus musculus, UniProt Q8CJ12, S774A); assay: BRET binding of FITC-VPM-p15; settings: mutant S760A
T5 construct: the entire ECD (including the entire GPS motif) was removed (ADGRG2-ΔGPS-β); expressed in transfected cells; host or cells: HEK293
Method: as §1, §2

Rluc-ADGRG2-ΔGPS-β V774A = target: T6, Rluc-ADGRG2-ΔGPS-β V774A (Mus musculus, UniProt Q8CJ12, V788A); assay: BRET binding of FITC-VPM-p15; settings: mutant V774A
T6 construct: expressed in transfected cells; host or cells: HEK293
Method: as §1, §2

Rluc-ADGRG2-ΔGPS-β I730A = target: T7, Rluc-ADGRG2-ΔGPS-β I730A (Mus musculus, UniProt Q8CJ12, I744A); assay: BRET binding of FITC-VPM-p15; settings: mutant I730A
T7 construct: the entire ECD (including the entire GPS motif) was removed (ADGRG2-ΔGPS-β); expressed in transfected cells; host or cells: HEK293
Method: as §1, §2

Rluc-ADGRG2-ΔGPS-β F764A = target: T8, Rluc-ADGRG2-ΔGPS-β F764A (Mus musculus, UniProt Q8CJ12, F778A); assay: BRET binding of FITC-VPM-p15; settings: mutant F764A
T8 construct: the entire ECD (including the entire GPS motif) was removed (ADGRG2-ΔGPS-β); expressed in transfected cells; host or cells: HEK293
Method: as §1, §2

Rluc-ADGRG2-ΔGPS-β L665A = target: T9, Rluc-ADGRG2-ΔGPS-β L665A (Mus musculus, UniProt Q8CJ12, L679A); assay: BRET binding of FITC-VPM-p15; settings: mutant L665A
T9 construct: the entire ECD (including the entire GPS motif) was removed (ADGRG2-ΔGPS-β); expressed in transfected cells; host or cells: HEK293
Method: as §1, §2

Rluc-ADGRG2-ΔGPS-β L683A = target: T10, Rluc-ADGRG2-ΔGPS-β L683A (Mus musculus, UniProt Q8CJ12, L697A); assay: BRET binding of FITC-VPM-p15; settings: mutant L683A
T10 construct: the entire ECD (including the entire GPS motif) was removed (ADGRG2-ΔGPS-β); expressed in transfected cells; host or cells: HEK293
Method: as §1, §2

Rluc-ADGRG2-ΔGPS-β V836A = target: T11, Rluc-ADGRG2-ΔGPS-β V836A (Mus musculus, UniProt Q8CJ12, V850A); assay: BRET binding of FITC-VPM-p15; settings: mutant V836A
T11 construct: expressed in transfected cells; host or cells: HEK293
Method: as §1, §2

ADGRG2-ΔGPS-β = target: T12, ADGRG2-ΔGPS-β (Mus musculus, UniProt Q8CJ12); assay: GloSensor cAMP assay, HEK293 transfected with ADGRG2-ΔGPS-β; format: cell-based
T12 construct: the entire ECD (including the entire GPS motif) was removed (ADGRG2-ΔGPS-β); expressed in transfected cells; host or cells: HEK293
Text: Wildtype ADGRG2 full-length (ADGRG2-FL) was cloned from mouse total cDNA libraries using the following primers: forward, […]; reverse, […], and then ADGRG2-FL, ADGRG2 C-terminal truncation mutant (ADGRG2-β), and ADGRG2-ΔGPS-β (the entire ECD of ADGRG2 was deleted) were subcloned into the pcDNA3.1 expression vector. The ADGRG2-ΔGPS-β mutants (T610A, Y611A, C614A, S661A, W662A, I663A, L665A, Y666A，N667A, F671A, L679A, L683A, I730A, V731A, F741A, F747A, W757A, I758A, N759A, S760A, V762A, F764A, Y765A, V768A, V769A, F772A, V774A, W824A, F826A, F828A, F829A, V834A, V836A, F838A, M839A, I844A, F845A) were generated using a QuikChange Mutagenesis Kit (Stratagene). All mutations were verified by DNA sequencing.
Human embryonic kidney 293 (HEK293) cells were maintained in Dulbecco’s modified Eagle’s medium supplemented with 10% fetal bovine serum, penicillin (100 IU/ml), and streptomycin (100 μg/ml) as described ([6], [38]). For receptor or other protein expression, plasmids carrying the desired genes were transfected into cells using Lipofectamine 2000 (Invitrogen).
The Glosensor cAMP assay was performed as described ([6], [39], [40]). HEK293 cells were transfected with the GloSensor plasmid and the desired expression plasmids in 24-well dishes. Twenty-four hours after transfection, the cells were plated on 96-well plates at a cell density of 20,000 cells/well. The cells were maintained in Dulbecco’s modified Eagle’s medium for another 24 h, washed with PBS, and then incubated with 100 μl of solution containing 10% fetal bovine serum, 2% (v/v) GloSensor cAMP reagent, and 88% CO2-independent medium in each well for 2 h. The cAMP signal was examined using a luminescence counter (Mithras LB 940).

[1] = Kd(mutated ADGRG2-ΔGPS-β)/Kd(WT)

T12 sequence (Q8CJ12 618-1009 limits assumed, stated change not applied): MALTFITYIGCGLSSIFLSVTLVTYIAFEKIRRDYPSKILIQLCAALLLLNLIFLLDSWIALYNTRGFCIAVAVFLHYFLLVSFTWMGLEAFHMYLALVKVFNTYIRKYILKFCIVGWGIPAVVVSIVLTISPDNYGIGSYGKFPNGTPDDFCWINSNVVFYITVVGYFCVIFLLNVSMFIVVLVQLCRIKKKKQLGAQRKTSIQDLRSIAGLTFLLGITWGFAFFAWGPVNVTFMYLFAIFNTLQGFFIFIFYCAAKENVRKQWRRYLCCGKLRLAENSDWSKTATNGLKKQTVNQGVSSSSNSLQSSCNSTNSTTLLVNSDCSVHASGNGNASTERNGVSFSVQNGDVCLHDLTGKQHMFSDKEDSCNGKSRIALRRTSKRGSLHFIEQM
T6 sequence (Q8CJ12 614-1009 V788A): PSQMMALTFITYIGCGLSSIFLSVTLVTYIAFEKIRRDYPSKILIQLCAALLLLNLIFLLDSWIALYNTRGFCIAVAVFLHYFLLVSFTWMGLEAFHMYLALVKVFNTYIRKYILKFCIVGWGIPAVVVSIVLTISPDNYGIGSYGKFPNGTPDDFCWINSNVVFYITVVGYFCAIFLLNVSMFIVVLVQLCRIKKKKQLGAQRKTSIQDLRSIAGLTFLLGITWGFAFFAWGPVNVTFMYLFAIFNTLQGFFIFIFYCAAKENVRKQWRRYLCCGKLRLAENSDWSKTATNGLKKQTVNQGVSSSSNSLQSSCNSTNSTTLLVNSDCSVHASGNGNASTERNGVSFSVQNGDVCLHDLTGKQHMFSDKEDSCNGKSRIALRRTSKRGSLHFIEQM
T9 sequence (Q8CJ12 618-1009 L679A limits assumed): as the sequence (Q8CJ12 618-1009 limits assumed, stated change not applied) above, with L62A counted along it
T11 sequence (Q8CJ12 614-1009 V850A): as the sequence (Q8CJ12 614-1009 V788A) above, with A175V, V237A counted along it
T8 sequence (Q8CJ12 618-1009 F778A limits assumed): as the sequence (Q8CJ12 618-1009 limits assumed, stated change not applied) above, with F161A counted along it
T7 sequence (Q8CJ12 618-1009 I744A limits assumed): as the sequence (Q8CJ12 618-1009 limits assumed, stated change not applied) above, with I127A counted along it
T10 sequence (Q8CJ12 618-1009 L697A limits assumed): as the sequence (Q8CJ12 618-1009 limits assumed, stated change not applied) above, with L80A counted along it
T5 sequence (Q8CJ12 618-1009 S774A limits assumed): as the sequence (Q8CJ12 618-1009 limits assumed, stated change not applied) above, with S157A counted along it
T3 sequence (Q8CJ12 618-1009 F761A limits assumed): as the sequence (Q8CJ12 618-1009 limits assumed, stated change not applied) above, with F144A counted along it
T1 sequence (Q8CJ12 614-1009 V848A): as the sequence (Q8CJ12 614-1009 V788A) above, with A175V, V235A counted along it
T4 sequence (Q8CJ12 618-1009 C628A limits assumed): as the sequence (Q8CJ12 618-1009 limits assumed, stated change not applied) above, with C11A counted along it
T2 sequence (Q8CJ12 618-1009 V745A limits assumed): as the sequence (Q8CJ12 618-1009 limits assumed, stated change not applied) above, with V128A counted along it

Compound `CC[C@H](C)[C@H](NC(=O)CNC(=O)[C@H](Cc1ccc(C)cc1)NC(=O)[C@H](CO)NC(=O)[C@@H](N)C(C)C)C(=O)N[C@@H](CC(C)C)C(=O)N[C@@H](CC(C)C)C(=O)N[C@@H](CC(=O)O)C(=O)N[C@@H](CC(C)C)C(=O)N[C@@H](CO)C(=O)N[C@@H](CCCNC(=N)N)C(=O)N[C@H](C(=O)N[C@@H](CO)C(=O)N[C@@H](CC(C)C)C(=O)N1CCC[C@H]1C(=O)N[C@@H](CCCCNC(=S)Nc1ccc2c(c1)C(=O)OC21c2ccc(O)cc2Oc2cc(O)ccc21)C(=O)O)[C@@H](C)O` [FITC-VPM-p15] (H-VS[Phe(4-Me)]GILLDLSRTSLPK(FITC)-OH; N-terminus and C-terminus assumed) has a Fmut (Rluc-ADGRG2-ΔGPS-β V834A; [1]) of 1.196, a Bmax (Rluc-ADGRG2-ΔGPS-β V834A; binding Bmax (BRET)) of 0.789±0.016 and a Bmax (Rluc-ADGRG2-ΔGPS-β V731A) of 0.7903±0.018. It also gave a Fmut (Rluc-ADGRG2-ΔGPS-β F747A; [1]) of 0.811, a Bmax (Rluc-ADGRG2-ΔGPS-β F747A; binding Bmax (BRET)) of 0.813±0.041 and a Fmut (Rluc-ADGRG2-ΔGPS-β C614A; [1]) of 1.382. The Bmax (Rluc-ADGRG2-ΔGPS-β C614A; binding Bmax (BRET)) was 0.7934±0.0241, the Fmut (Rluc-ADGRG2-ΔGPS-β S760A; [1]) was 1.444 and the Bmax (Rluc-ADGRG2-ΔGPS-β S760A; binding Bmax (BRET)) was 0.716±0.011. It also gave a Fmut (Rluc-ADGRG2-ΔGPS-β V774A; [1]) of 1.149, a Bmax (Rluc-ADGRG2-ΔGPS-β V774A; binding Bmax (BRET)) of 0.820±0.032 and a Fmut (Rluc-ADGRG2-ΔGPS-β I730A; [1]) of 1.281. It also gave a Bmax (Rluc-ADGRG2-ΔGPS-β I730A; binding Bmax (BRET)) of 0.7950±0.031, a Fmut (Rluc-ADGRG2-ΔGPS-β F764A; [1]) of 1.183 and a Bmax (Rluc-ADGRG2-ΔGPS-β F764A; binding Bmax (BRET)) of 0.814±0.039. It also gave a Fmut (Rluc-ADGRG2-ΔGPS-β L665A; [1]) of 0.850, a Bmax (Rluc-ADGRG2-ΔGPS-β L665A; binding Bmax (BRET)) of 0.799±0.012 and a Fmut (Rluc-ADGRG2-ΔGPS-β L683A; [1]) of 1.240. It also gave a Bmax (Rluc-ADGRG2-ΔGPS-β L683A; binding Bmax (BRET)) of 0.7887±0.022, a Fmut (Rluc-ADGRG2-ΔGPS-β V836A; [1]) of 1.315 and a Bmax (Rluc-ADGRG2-ΔGPS-β V836A; binding Bmax (BRET)) of 0.775±0.030.
With `CC[C@H](C)[C@H](NC(=O)CNC(=O)[C@H](Cc1ccc(C)cc1)NC(=O)[C@H](CO)NC(=O)[C@@H](N)C(C)C)C(=O)N[C@@H](CC(C)C)C(=O)N[C@@H](CC(C)C)C(=O)N[C@@H](CC(=O)O)C(=O)N[C@@H](CC(C)C)C(=O)N[C@@H](CO)C(=O)N[C@@H](CCCNC(=N)N)C(=O)N[C@H](C(=O)N[C@@H](CO)C(=O)N[C@@H](CC(C)C)C(=O)N1CCC[C@H]1C(=O)O)[C@@H](C)O` [VPM-p15] (H-VS[Phe(4-Me)]GILLDLSRTSLP-OH) the EC50 (ADGRG2-ΔGPS-β; cAMP Glosensor, ADGRG2-ΔGPS-β, HEK293) was 1410 ± 160 nM, the “EC50 compared with wildtype p15 or other mutants” value (ADGRG2-ΔGPS-β; concentration-response curves, cAMP Glosensor, ADGRG2-ΔGPS-β) was “significant lower EC50 than other mutants” and the EC50 (ADGRG2-ΔGPS-β; receptor WT (Table S4), HEK293, cAMP Glosensor) was 1060 nM.
